# Patent US8232284B2, “Heteroaryloxy quinazoline derivative” (MSD K. K., priority 2007, dated 2012)
# Counter-ions that a name gives are not always drawn. Like-named read-outs stand apart in the source and are kept apart here.
# What was measured:
# [1] = tested on: male beagles; assay: Pharmacological Test Example 2: drug efficacy test in dogs (plasma glucose level AUC); assay type: in vivo; details: for Percentage reduction (%) in plasma glucose level AUC: male beagles fasted overnight, oral 1 mg/kg in 0.5% methyl cellulose, compared to control group up to 4 hours after administration
# Procedure: (§1) From the cephalic vein of male beagles fasted overnight (10.4-13.7 kg body weight), blood was collected prior to administration, followed by oral administration of the test drug suspended in a 0.5% methyl cellulose solution (1 mg/kg in both of the compounds of Example A and Example 18), while a 0.5% methyl cellulose solution was orally administered to the control group. The blood was collected every 0.5 or 1 hour after the administration of the test drug. Plasma was separated from the obtained blood to determine a plasma glucose level using Determina-GL-E (Kyowa Medics). Percentage reductions in plasma glucose level AUC compared to the control group up to 4 hours after the administration were described below.
# [2] = tested on: male beagles; assay: Pharmacological Test Example 3: drug efficacy test in dogs (plasma glucose level AUC); assay type: in vivo; details: male beagles fasted overnight; oral 1 mg/kg in 0.5% methyl cellulose; compared to control group up to 4 hours after administration
# Procedure: as §1, with “(8.5-13.7” for “(10.4-13.7”, “Examples 30” for “the compounds of Example A”, “31),” for “Example 18),”, “Medics).” for “Medics). Percentage reductions in plasma glucose level AUC compared to the control group up to 4 hours after the administration were described below.”
# Percentage reductions in plasma glucose level AUC compared to the control group up to 4 hours after the administration were described below.
# [3] = molecular target: T1, recombinant human liver GK (Homo sapiens, UniProt P35557); assay: Glucokinase-activating effect (Thio-NADH coupled assay with G6PDH, 2.5 mM glucose); assay type: biochemical
# T1 construct: made in house; host or cells: E. coli
# T1 sequence (P35557 1-466 isoform P35557-2): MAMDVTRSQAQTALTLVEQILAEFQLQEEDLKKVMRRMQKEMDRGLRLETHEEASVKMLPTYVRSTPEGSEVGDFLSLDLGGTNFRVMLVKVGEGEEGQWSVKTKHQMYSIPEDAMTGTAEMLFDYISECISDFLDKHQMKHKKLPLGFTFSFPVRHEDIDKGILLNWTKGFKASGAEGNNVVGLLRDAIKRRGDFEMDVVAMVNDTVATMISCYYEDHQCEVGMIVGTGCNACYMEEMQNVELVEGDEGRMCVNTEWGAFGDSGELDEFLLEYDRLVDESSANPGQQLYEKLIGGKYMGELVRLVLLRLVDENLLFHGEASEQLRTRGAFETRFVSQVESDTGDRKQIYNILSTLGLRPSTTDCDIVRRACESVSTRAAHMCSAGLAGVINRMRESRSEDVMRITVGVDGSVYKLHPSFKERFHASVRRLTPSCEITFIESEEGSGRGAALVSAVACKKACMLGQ
# From the text: The excellent glucokinase-activating effect of the compounds of the formula (I) may be determined by a method described in literature (for example, Diabetes, Vol. 45, pp. 1671-1677, 1996), or in accordance with it.
# The glucokinase activity may be determined not by directly measuring glucose-6-phosphate but by measuring the level of Thio-NADH, which is produced when a reporter enzyme, glucose-6-phosphate dehydrogenase produces phosphogluconolactone from glucose-6-phosphate, and based on the level, the degree of glucokinase activation by the compound tested may be determined
# In this assay, used was a recombinant human liver GK, which was expressed by E. coli as a FLAG fusion protein therein and was purified by ANTIFLAG M2 AFFINITY GEL (Sigma).
# Using a flat-bottomed 96-well plate, the assay was carried out at 30° C. 69 μl of an assay buffer (25 mM Hepes Buffer/pH=7.2, 2 mM MgCl2, 1 mM ATP, 0.5 mM TNAD, 1 mM dithiothreitol) was put into the plate, and 1 μl of a DMSO solution of the compound or DMSO alone as a control was added thereto. Next, 20 μl of an enzyme mixture (FLAG-GK, 20 U/ml G6PDH) cooled in ice was added to it, and 10 μl of a substrate, 25 mM glucose was added to it, and the reaction was initiated (final glucose concentration=2.5 mM).
# After the start of the reaction, the increase in the absorbance at 405 nm was measured for 12 minutes at intervals of 30 seconds, and the increase for the first 5 minutes was used for assessing the compound tested. FLAG-GK was added so that the absorbance increase after 5 minutes in the presence of 1% DMSO could be from 0.04 to 0.06.
# The OD level of the DMSO control was set as 100%; and the OD level of the test compound at different concentrations was determined. From the OD level at each concentration, Emax (%) and EC50 (μM) were computed and used as the index of the GK-activating potency of the compound.
# The comparative test was conducted to compare the compound of example 18, 31 and 32 in this invention with the compound (A) in the patent document 1. The test method in vitro was similar to pharmacological experiment 1 (glucokinase-activating effect).
# [4] = comparative test in vitro, similar to pharmacological experiment 1, read-out: GK activity EC50
# [5] = final glucose concentration 2.5 mM, 30° C., read-out: EC50
compound,measurement,setting,value
Cc1cnc(Nc2ncnc3ccc(Oc4ncccc4Cl)cc23)cn1 [Compound A],drug efficacy in the dogs,"[1]; in vivo tests in dogs, summary statement",no drug efficacy
same,Percentage reduction (%) in plasma glucose level AUC,[1],−1%
same,Percentage reduction (%) in plasma glucose level AUC,[2],−1%
"CCNCCOc1cnc(Oc2ccc3ncnc(Nc4ccn(C)n4)c3c2)c(Cl)c1.Cl [Example 18, 6-({3-chloro-5-[2-(ethylamino)ethoxy]pyridin-2-yl}oxy)-N-(1-methyl-1H-pyrazol-3-yl)quinazoline-4-amine hydrochloride]",Percentage reduction (%) in plasma glucose level AUC,[1],26%
same,EC50,[3]; [4],0.03 µM
"Cc1cnc(Nc2ncnc3ccc(Oc4ccc(OCCN(C)C)cn4)cc23)cn1 [Example 31, 6-({5-[2-(dimethylamino)ethoxy]pyridin-2-yl}oxy)-N-(5-methylpyrazin-2-yl)quinazoline-4-amine]",EC50,[3]; [4],0.44 µM
same,Percentage reduction (%) in plasma glucose level AUC,[2],7.9%
"CNCCOc1cnc(Oc2ccc3ncnc(Nc4cnc(C)cn4)c3c2)c(Cl)c1.Cl [Example 32, 6-({3-chloro-5-[2-(methylamino)ethoxy]pyridin-2-yl}oxy)-N-(5-methylpyrazin-2-yl)quinazoline-4-amine hydrochloride]",EC50,[3]; [4],0.04 µM
same,Percentage reduction (%) in plasma glucose level AUC,[2],17.5%
"Cc1cc(OCCNC(C)C)cnc1Oc1ccc2ncnc(Nc3cnn(C)n3)c2c1 [Example 81, N-(2-{[5-methyl-6-({4-[(2-methyl-2H-1,2,3-triazol-4-yl)amino]quinazolin-6-yl}oxy)pyridin-3-yl]oxy}ethyl)propan-2-amine hydrochloride]",EC50,[3]; [5],0.013 µM
"Cc1cc(OCCO)cnc1Oc1ccc2ncnc(Nc3cnn(C)n3)c2c1 [Example 84, 2-{[5-methyl-6-({4-[(2-methyl-2H-1,2,3-triazol-4-yl)amino]quinazolin-6-yl}oxy)pyridin-3-yl]oxy}ethanol]",EC50,[3]; [5],0.04 µM
